The source of these data is paper PMC8949375, “Design, Green Synthesis and Tailoring of Vitamin E TPGS Augmented Niosomal Nano-Carrier of Pyrazolopyrimidines as Potential Anti-Liver and Breast Cancer Agents with Accentuated Oral Bioavailability” (Pharmaceuticals, 2022).

Like-named read-outs stand apart in the source and are kept apart here.

Data set [1] relates to VEGF protein expression level in MCF-7 cell line. Nature of the data set: VEGF ELISA in MCF-7 cell culture supernatant. It counts as cell-based, human. Set-up: concentration or dose not given beside the values. As to conditions: MCF-7, ELISA, compared to control. As for the experimental part: (§1) Total protein was assayed using the method described by Bradford. The VEGF ELISA Assay Kit (VEGF) and ELISA Kit, (#VGF31-[…]) were purchased from (Eagle Biosciences CO., LTD, Amherst, NH, USA). The kit is a sandwich enzyme immunoassay for the in vitro quantitative determination of VEGF concentrations in cell culture supernates, serum and plasma according to the manufacturer's instructions.

Data set [2] concerns HepG2 cell line. Nature of the data set: MTT cytotoxicity assay, HepG2. In kind it is cell-based. As to conditions: Homo sapiens. An excerpt: (§2) The human HCC cell line, HEPG-2, was obtained from the American Type Culture Collection and used to evaluate the effects of the following drugs. MCF-7(ATCC® HTB-22TM, Manassas, VA, USA) breast cancer cells were derived from mammary gland or breast at a metastatic site. […] The human Caco-2 cell line, Caco-2, was obtained from the American Type Culture Collection and used to evaluate the effects of the following drugs. […], Manassas, VA, USA), epithelial-like lung carcinoma, was derived from lung tissue at a metastatic site. The human A549 cell line, A549, was obtained from the American Type Culture Collection and used to evaluate the effects of the following drugs. […] LLC., Burlington, VT, USA). Penicillin/streptomycin (Gibco®, Grand Island, NY, USA) was applied at 100 units/mL and 100 μg/mL, respectively. Growth inhibition was determined by classic MTT assay. In brief, HEPG2, A549, MCF-7 and Caco-2 cells were added to a cell culture MTT assay plate at a concentration of 5 × 10^3 cells/well in 1640 medium and cultured overnight. The different treatments were added on day 1 according to the calculated doses except on the control well and standard, then incubated for 24 h.

Data set [3] relates to HepG2, MCF-7, A-549 and CaCo-2 cell lines. The experiment in a line: MTT cytotoxicity assay, summary over all tested cell lines. As to conditions: for IC50: Homo sapiens, range over compounds and cell lines, read-out: IC50 values versus all tested cell lines (collective range); for cytotoxic effect on the four cancer cell lines: in words. In kind it is cell-based, human. From the text: (§3) • HepG2 [HEPG2] (ATCC® HB-8065™, Manassas, VA, USA) epithelial hepatocellular carcinoma was derived from the liver tissue of a person (a well-differentiated hepatocellular carcinoma). The human HCC cell line, HEPG-2, was obtained from the American Type Culture Collection and used to evaluate the effects of the following drugs. MCF-7(ATCC® HTB-22™, Manassas, VA, USA) breast cancer cells were derived from mammary gland or breast at a metastatic site. The human MCF-7 cell line, MCF-7, was obtained from the American Type Culture Collection and used to evaluate the effects of the following drugs. • Caco 2 [Caco2] (ATCC® HTB 37™, Manassas, VA, USA) epithelial colorectal adenocarcinoma was derived from the colon at a metastatic site. The human Caco-2 cell line, Caco-2, was obtained from the American Type Culture Collection and used to evaluate the effects of the following drugs. A549 (ATCC® CCL-185™, Manassas, VA, USA), epithelial-like lung carcinoma, was derived from lung tissue at a metastatic site. The human A549 cell line, A549, was obtained from the American Type Culture Collection and used to evaluate the effects of the following drugs.
(§4) HEPG2, A549, MCF-7 and Caco-2 cells were maintained in a monolayer culture in a T-25 flask at 5% CO2 and 37 °C in DMEM (Lonza, Verviers, Belgium) and supplemented with 10% (v/v) FBS (Sigma-Aldrich Co. LLC., Burlington, VT, USA). Penicillin/streptomycin (Gibco®, Grand Island, NY, USA) was applied at 100 units/mL and 100 µg/mL, respectively.
(§5) Growth inhibition was determined by classic MTT assay. In brief, HEPG2, A549, MCF-7 and Caco-2 cells were added to a cell culture MTT assay plate at a concentration of 5 × 10^3 cells/well in 1640 medium and cultured overnight. The different treatments were added on day 1 according to the calculated doses except on the control well and standard, then incubated for 24 h. Measurement was achieved using a microplate reader (Model 550, Bio-Rad, Hercules, CA, USA).

For data set [4], the system named is A-549 cell line. The experiment in a line: MTT cytotoxicity assay, A-549. The settings on record: Homo sapiens, A549, read-out: IC50 A-549 Lung Carcinoma. It counts as cell-based.
Source text: as §3, §4, §5

Data set [5] deals with VEGF protein expression level in HepG2 cell line. Nature of the data set: VEGF ELISA in HepG2 cell culture supernatant. As to conditions: compared to control. It counts as cell-based, human. Also noted: concentration or dose not given beside the values. On the procedure: as §1
Data set [6] concerns VEGFR-2 protein expression level in HepG2 cell line. Nature of the data set: Human VEGF receptor-2 ELISA in HepG2. It counts as cell-based. Also noted: concentration or dose not given beside the values. The settings on record: compared to control. On the procedure:
(§6) Total protein was assayed using the method described by Bradford. The Human VEGF receptor-2 ELISA Kit (ab213476), (96 tests) was purchased from (abcam®, Waltham, MA, USA). The kit is a sandwich enzyme immunoassay for the in vitro quantitative measurement of human VEGFR-2 in tissue homogenates, cell lysates and other biological fluids according to the manufacturer’s instructions.

Data set [7] relates to MCF-7 cell line. Nature of the data set: MTT cytotoxicity assay, MCF-7. In kind it is cell-based. As to conditions: Homo sapiens, MCF7, read-out: IC50 MCF-7 Breast Cancer.
Source text: as §2

Data set [8] relates to CaCo-2 cell line. The experiment in a line: MTT cytotoxicity assay, CaCo-2. The settings on record: Homo sapiens, read-out: IC50 CaCo-2 Colon Cancer. It counts as cell-based.
Source text: as §3, §4, §5

The test system of data set [9] is VEGFR-2 protein expression level in MCF-7 cell line. The experiment in a line: Human VEGF receptor-2 ELISA in MCF-7. Set-up: concentration or dose not given beside the values. In kind it is cell-based. As to conditions: MCF-7, ELISA, compared to control. As for the experimental part:
as §6

For data set [10], the system named is VEGF gene expression level in HepG2 cell line. Nature of the data set: Real-time PCR of VEGF gene expression, HepG2. It counts as cell-based, human. The settings on record: HepG2, 3 days of treatment, compared to control, in words. As for the experimental part: RT-PCR was applied to evaluate the VEGF gene expression level. Briefly, total RNA was extracted, and the extracted total RNA concentration was determined using a NanoDrop 2000 spectrophotometer (Thermo Fisher, Waltham, MA, USA). To determine the relative expression levels, the 2^−ΔΔCT method was used. NCBI/Primer Blast was used to define the primer sequences. The experiments were performed in quadruplicate. The primer sequences of VEGF and β-actin genes are listed below: […]

Where [11] appears, read: read-out: IC50 HepG2 Livercarcinoma.

Consider `Cc1ccc(N=Nc2c(N)n[nH]c2N)cc1` [Compound 1, 4-(p-tolyldiazenyl)-1H-pyrazole-3,5-diamine], for which the “VEGF 24 h % Inhibition” value in data set [1] was found to be 20%; in data set [5], 23%. Besides, the entries for the “VEGF 72 h % Inhibition” value in data set [1] and in data set [5] were 50% and 33.3%, respectively. For the same compound, the IC50 in data set [2] (setting [11]) is 20 µM; in data set [3], 6 to 50 µM; in data set [4], 15.1 µM; in data set [7], 50 µM; in [8] it was 18.2 µM. Moreover, the “VEGFR-2 24 h % Inhibition” value in data set [6] is reported as 52.6%; in [9], 33.3%. The “VEGFR-2 72 h % Inhibition” value in [6] was 38.5%; in data set [9], 50%.

As to `Cc1ccc(N=Nc2c(N)nn3c(N)c(N=Nc4ccc(S(=O)(=O)N=C(N)N)cc4)c(O)nc23)cc1` [Compound 2a, 4-((2,7-Diamino-5-hydroxy-3-(4-tolyldiazenyl)pyrazolo[1,5-a]pyrimidin-6-yl)diazenyl)-N-(diaminomethylene)benzenesulfonamide], the melting point was in the range of 268 to 270 °C. Also, in data set [1], the “VEGF 24 h % Inhibition” value was 40% and the “VEGF 72 h % Inhibition” value was determined as 50%. For the same compound, the “VEGF gene expression level” value in data set [10] is listed as “great inhibition”. The IC50 in [2] (TPGS-coated vs uncoated niosomes vs pure compound, read-out: IC50 Hepg2 Liver Carcinoma) amounted to 6.5 µM. In addition, in data set [2] (setting [11]), the IC50 is 6.2 µM. Also, the IC50 in data set [3] was 6 to 50 µM. Further, the IC50 in data set [4] was found to be 10 µM. Also, in data set [5], the “VEGF 24 h % Inhibition” value was determined as 38.5% and the “VEGF 72 h % Inhibition” value turned out to be 33.3%. In addition, in data set [6], the “VEGFR-2 24 h % Inhibition” value came out at 47.4% and the “VEGFR-2 72 h % Inhibition” value is 38.5%. In addition, the IC50 in [7] amounted to 20 µM. Moreover, in data set [8], the IC50 came to 12.5 µM. In data set [9], the “VEGFR-2 24 h % Inhibition” value is given as 50% and the “VEGFR-2 72 h % Inhibition” value is reported as 50%.

The compound `Cc1ccc(N=Nc2c(N)nn3c(N)c(N=Nc4cccc([N+](=O)[O-])c4)c(O)nc23)cc1` [Compound 2b, 2,7-diamino-6-((3-nitrophenyl)diazenyl)-3-(4-tolyldiazenyl)pyrazolo[1,5-a]pyrimidin-5-ol] came in with a melting point of 234 to 236 °C. Further, the “cytotoxic effect on the four cancer cell lines” value (shortened to “cytotoxic effect”) in [3] is “no cytotoxic effects even at high doses”.

In the case of `Cc1ccc(N=Nc2c(N)nn3c(C)c(N=Nc4ccc(S(=O)(=O)N=C(N)N)cc4)c(C)nc23)cc1` [Compound 3a, 4-((2-Amino-5,7-dimethyl-3-(4-tolyldiazenyl)pyrazolo[1,5-a]pyrimidin-6-yl)diazenyl)-N-(diaminomethylene)benzenesulfonamide], the melting point lay within 250 to 252 °C. Also, in data set [3], the “cytotoxic effect” value is “no cytotoxic effects even at high doses”.

The compound `Cc1ccc(N=Nc2c(N)nn3c(C)c(N=Nc4cccc([N+](=O)[O-])c4)c(C)nc23)cc1` [Compound 3b, 5,7-Dimethyl-6-((3-nitrophenyl)diazenyl)-3-(4-tolyldiazenyl)pyrazolo[1,5-a]pyrimidin-2-amine] returned a melting point of 256 to 258 °C. Further, the “cytotoxic effect” value in data set [3] was “no cytotoxic effects even at high doses”.

On to `Cc1ccc(N=Nc2c(N)nn3c(C)c(N=Nc4ccc(S(=O)(=O)N=C(N)N)cc4)c(=O)[nH]c23)cc1` [Compound 4a, 4-((2-Amino-7-methyl-5-oxo-3-(4-tolyldiazenyl)-4,5-dihydropyrazolo[1,5-a]pyrimidin-6-yl)diazenyl)-N-(diaminomethylene)benzenesulfonamide], for which the melting point was 272 to 274 °C. Besides, in data set [3], the “cytotoxic effect” value was “no cytotoxic effects even at high doses”.

`Cc1ccc(N=Nc2c(N)nn3c2NC(=O)C(=NNc2ccc(S(=O)(=O)N=C(N)N)cc2)C3=O)cc1` [Compound 5, 4-(2-(2-Amino-5,7-Dioxo-3-(4-Tolyldiazenyl)-4,5-Dihydropyrazolo[1,5-a]Pyrimidin-6(7H)-Ylidene)Hydrazinyl)-N-(Diaminomethylene)Benzenesulfonamide]: the melting point is 278 to 280 °C. Further, the “cytotoxic effect” value in [3] is on record as “no cytotoxic effects even at high doses”.

`COc1ccc(-c2nc3c(N=Nc4ccc(C)cc4)c(N)nn3c(N)c2C#N)cc1` [Compound 6, 2,7-Diamino-5-(4-Methoxyphenyl)-3-(4-Tolyldiazenyl)Pyrazolo[1,5-a]Pyrimidine-6-Carbonitrile] had a melting point of 230 to 232 °C. Moreover, the “cytotoxic effect” value in [3] was “no cytotoxic effects even at high doses”.

As for `CO[C@H]1C[C@@H]2CC[C@@H](C)[C@@](O)(O2)C(=O)C(=O)N2CCCC[C@H]2C(=O)O[C@H]([C@H](C)C[C@@H]2CC[C@@H](OCCO)[C@H](OC)C2)CC(=O)[C@H](C)/C=C(\C)[C@@H](O)[C@@H](OC)C(=O)[C@H](C)C[C@H](C)/C=C/C=C/C=C/1C` [Everolimus, reference compound], in data set [1], the “VEGF 24 h % Inhibition” value is listed as 50% and the “VEGF 72 h % Inhibition” value was found to be 62.5%. Besides, the IC50 in data set [7] turned out to be 3 µM. In data set [9], the “VEGFR-2 24 h % Inhibition” value amounted to 40% and the “VEGFR-2 72 h % Inhibition” value was determined as 50%.

Turning to `CNC(=O)c1cc(Oc2ccc(NC(=O)Nc3ccc(Cl)c(C(F)(F)F)c3)c(F)c2)ccn1` [Regorafenib, reference compound], in data set [2] (setting [11]), the IC50 is 3 µM. Further, in data set [5], the “VEGF 24 h % Inhibition” value turned out to be 70.8% and the “VEGF 72 h % Inhibition” value came out at 75.4%. Further, in [6], the “VEGFR-2 24 h % Inhibition” value is reported as 62% and the “VEGFR-2 72 h % Inhibition” value worked out at 55.6%.

For the compound `CNC(=O)c1cc(Oc2ccc(NC(=O)Nc3ccc(Cl)c(C(F)(F)F)c3)cc2)ccn1` [Sorafenib, reference compound], the IC50 in [2] (setting [11]) worked out at 6 µM.
